Data reported in patent US20230085307A1, “PYRIDAZINONE COMPOUND AND HERBICIDE” (NISSAN CHEMICAL CORPORATION, priority 2019, published 2023).

Columns and labels:
[1] = test system: late watergrass; test: Test Example 1: herbicidal activity, application before weed generation under submerged conditions (Table 16, symbol A); assay type: in vivo, late watergrass (Echinochloa oryzicola); conditions: 320 g/ha applied herbicide
In short: (§1)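 Alluvial soil was flooded to 4 cm depth, weed seeds were sown mixed and 2.5-leaf rice seedlings were transplanted. On sowing day, the compound's emulsion, diluted in water to a set dose, was applied to the water surface. Plants grew at 25–30 °C and were scored 0–5 after three weeks.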

[2] = test system: Japanese bulrush; test: Test Example 1: herbicidal activity, application before weed generation under submerged conditions (Table 16, symbol B); assay type: in vivo, Japanese bulrush (Schoenoplectus juncoides); conditions: 320 g/ha applied herbicide
In short: as §1

[3] = test system: oval-leafed pondweed; test: Test Example 1: herbicidal activity, application before weed generation under submerged conditions (Table 16, symbol C); assay type: in vivo, oval-leafed pondweed (Monochoria vaginalis); conditions: 320 g/ha applied herbicide
In short: as §1

[4] = test system: barnyard grass; test: Test Example 3: herbicidal effect by foliage application, Wagner pot (Table 18, symbol H); assay type: in vivo, barnyard grass (Echinochloa crus-galli)
In short: (§2)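 Plants were sown in alluvial soil held under 0.1–0.5 cm standing water and grown 14 days in a greenhouse at 25–30 °C. An emulsifiable formulation, water-diluted to the set dose, was then sprayed onto the foliage, and effects were scored three weeks later using previously defined criteria.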

[5] = test system: Chinese sprangletop; test: Test Example 3: herbicidal effect by foliage application, Wagner pot (Table 18, symbol D); assay type: in vivo, chinese sprangletop (Leptochloa chinensis)
In short: as §2

[6] = test system: rice flat sedge; test: Test Example 3: herbicidal effect by foliage application, Wagner pot (Table 18, symbol E); assay type: in vivo, rice flat sedge (Cyperus iria)
In short: as §2

[7] = test system: southern crabgrass; test: Test Example 4: herbicidal effect by soil treatment (Table 19, symbol F); assay type: in vivo, southern crabgrass (Digitaria ciliaris); conditions: amount of applied herbicide 320 g/ha
In short: (§3)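 Seeds were sown in sterilized diluvial soil and covered with about 1.5 cm of soil. An emulsion formulation diluted with water to a predetermined herbicide amount was sprayed evenly onto the soil surface. Plants grew in a greenhouse at 25° C. to 30° C., and the effect was scored three weeks after application using criteria from an earlier test.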

[8] = test system: green foxtail; test: Test Example 4: herbicidal effect by soil treatment (Table 19, symbol G); assay type: in vivo, green foxtail (Setaria viridis); conditions: amount of applied herbicide 320 g/ha
In short: as §3

[9] = test system: barnyard grass; test: Test Example 4: herbicidal effect by soil treatment (Table 19, symbol H); assay type: in vivo, barnyard grass (Echinochloa crus-galli); conditions: amount of applied herbicide 320 g/ha
In short: as §3

[10] = test system: wild oat; test: Test Example 4: herbicidal effect by soil treatment (Table 19, symbol I); assay type: in vivo, wild oat (Avena fatua); conditions: amount of applied herbicide 320 g/ha
In short: as §3

[11] = test system: Italian ryegrass; test: Test Example 4: herbicidal effect by soil treatment (Table 19, symbol K); assay type: in vivo, Italian ryegrass (Lolium multiflorum); conditions: amount of applied herbicide 320 g/ha
In short: as §3

[12] = test system: windgrass; test: Test Example 4: herbicidal effect by soil treatment (Table 19, symbol L); assay type: in vivo, windgrass (Apera spica-venti); conditions: amount of applied herbicide 320 g/ha
In short: as §3

[13] = test system: velvetleaf; test: Test Example 4: herbicidal effect by soil treatment (Table 19, symbol M); assay type: in vivo, velvetleaf (Abutilon theophrasti); conditions: amount of applied herbicide 320 g/ha
In short: as §3

[14] = test system: redroot pigweed; test: Test Example 4: herbicidal effect by soil treatment (Table 19, symbol N); assay type: in vivo, redroot pigweed (Amaranthus retroflexus); conditions: amount of applied herbicide 320 g/ha
In short: as §3

[15] = test system: lambsquarters; test: Test Example 4: herbicidal effect by soil treatment (Table 19, symbol O); assay type: in vivo, lambsquarters (Chenopodium album); conditions: amount of applied herbicide 320 g/ha
In short: as §3

[16] = test system: false cleavers; test: Test Example 4: herbicidal effect by soil treatment (Table 19, symbol Q); assay type: in vivo, false cleavers (Galium spurium); conditions: amount of applied herbicide 320 g/ha
In short: as §3

[17] = test system: southern crabgrass; test: Test Example 5: herbicidal effect by foliage application, plastic box (Table 20, symbol F); assay type: in vivo, southern crabgrass (Digitaria ciliaris); conditions: evaluated three weeks after application
In short: (§4)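 Plants sown in sterilized diluvial soil and grown 14 days in a greenhouse at 25° C to 30° C, then sprayed on the foliage with the compound's emulsion diluted in water to a predetermined herbicide amount. Injury to weeds and crops scored three weeks after application on a visual rating scale.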

[18] = test system: green foxtail; test: Test Example 5: herbicidal effect by foliage application, plastic box (Table 20, symbol G); assay type: in vivo, green foxtail (Setaria viridis); conditions: evaluated three weeks after application
In short: as §4

[19] = test system: barnyard grass; test: Test Example 5: herbicidal effect by foliage application, plastic box (Table 20, symbol H); assay type: in vivo, barnyard grass (Echinochloa crus-galli); conditions: evaluated three weeks after application
In short: as §4

[20] = test system: wild oat; test: Test Example 5: herbicidal effect by foliage application, plastic box (Table 20, symbol I); assay type: in vivo, wild oat (Avena fatua); conditions: evaluated three weeks after application
In short: as §4

[21] = test system: blackgrass; test: Test Example 5: herbicidal effect by foliage application, plastic box (Table 20, symbol J); assay type: in vivo, blackgrass (Alopecurus myosuroides); conditions: evaluated three weeks after application
In short: as §4

[22] = test system: Italian ryegrass; test: Test Example 5: herbicidal effect by foliage application, plastic box (Table 20, symbol K); assay type: in vivo, Italian ryegrass (Lolium multiflorum); conditions: evaluated three weeks after application
In short: as §4

[23] = test system: windgrass; test: Test Example 5: herbicidal effect by foliage application, plastic box (Table 20, symbol L); assay type: in vivo, windgrass (Apera spica-venti); conditions: evaluated three weeks after application
In short: as §4

[24] = test system: velvetleaf; test: Test Example 5: herbicidal effect by foliage application, plastic box (Table 20, symbol M); assay type: in vivo, velvetleaf (Abutilon theophrasti); conditions: evaluated three weeks after application
In short: as §4

[25] = test system: redroot pigweed; test: Test Example 5: herbicidal effect by foliage application, plastic box (Table 20, symbol N); assay type: in vivo, redroot pigweed (Amaranthus retroflexus); conditions: evaluated three weeks after application
In short: as §4

[26] = test system: lambsquarters; test: Test Example 5: herbicidal effect by foliage application, plastic box (Table 20, symbol O); assay type: in vivo, lambsquarters (Chenopodium album); conditions: evaluated three weeks after application
In short: as §4

[27] = test system: chickweed; test: Test Example 5: herbicidal effect by foliage application, plastic box (Table 20, symbol P); assay type: in vivo, common chickweed (Stellaria media); conditions: evaluated three weeks after application
In short: as §4

[28] = test system: persian speedwell; test: Test Example 5: herbicidal effect by foliage application, plastic box (Table 20, symbol R); assay type: in vivo, Persian speedwell (Veronica persica); conditions: evaluated three weeks after application
In short: as §4

[29] = test system: blackgrass; test: Test Example 4: herbicidal effect by soil treatment (Table 19, symbol J); assay type: in vivo, blackgrass (Alopecurus myosuroides); conditions: amount of applied herbicide 320 g/ha
In short: as §3

[30] = test system: chickweed; test: Test Example 4: herbicidal effect by soil treatment (Table 19, symbol P); assay type: in vivo, common chickweed (Stellaria media); conditions: amount of applied herbicide 320 g/ha
In short: as §3

[31] = test system: persian speedwell; test: Test Example 4: herbicidal effect by soil treatment (Table 19, symbol R); assay type: in vivo, Persian speedwell (Veronica persica); conditions: amount of applied herbicide 320 g/ha
In short: as §3

[32] = amount of applied herbicide 320 g/ha
[33] = foliage application, AAH 320 g/ha
[34] = 320 g/ha, foliage application after 14-day growth

Cc1nn(C)c(=O)c(-c2c(-c3ccc(COCC(F)(F)F)cc3)sc3ccc(F)cc23)c1O [2-315]
Herbicidal effect on A: late watergrass (grade 0-5) [1]: 4 (Herbicidal rate of 70% or more and less than 90%)
Herbicidal effect on B: Japanese bulrush (grade 0-5) [2]: 0 (Herbicidal rate of 5% or less (almost no effect))
Herbicidal effect on C: oval-leafed pondweed (grade 0-5) [3]: 0 (Herbicidal rate of 5% or less (almost no effect))
herbicidal effect on H: barnyard grass [4, 32]: 5 (Herbicidal rate of 90% or more (almost completely withered))
herbicidal effect on D: Chinese sprangletop [5, 32]: 3 (Herbicidal rate of 40% or more and less than 70%)
herbicidal effect on E: rice flat sedge [6, 32]: 5 (Herbicidal rate of 90% or more (almost completely withered))
herbicidal effect on F: southern crabgrass [7]: 2 (Herbicidal rate of 20% or more and less than 40%)
herbicidal effect on G: green foxtail [8]: 3 (Herbicidal rate of 40% or more and less than 70%)
herbicidal effect on H: barnyard grass [9]: 3 (Herbicidal rate of 40% or more and less than 70%)
herbicidal effect on I: wild oat [10]: 0 (Herbicidal rate of 5% or less (almost no effect))
herbicidal effect on K: Italian ryegrass [11]: 4 (Herbicidal rate of 70% or more and less than 90%)
herbicidal effect on L: windgrass [12]: 0 (Herbicidal rate of 5% or less (almost no effect))
herbicidal effect on M: velvetleaf [13]: 4 (Herbicidal rate of 70% or more and less than 90%)
herbicidal effect on N: redroot pigweed [14]: 5 (Herbicidal rate of 90% or more (almost completely withered))
herbicidal effect on O: lambsquarters [15]: 5 (Herbicidal rate of 90% or more (almost completely withered))
herbicidal effect on Q: false cleavers [16]: 5 (Herbicidal rate of 90% or more (almost completely withered))
F: southern crabgrass, herbicidal effect (criteria 0-5) [17, 33]: 4 (Herbicidal rate of 70% or more and less than 90%)
G: green foxtail, herbicidal effect (criteria 0-5) [18, 33]: 5 (Herbicidal rate of 90% or more (almost completely withered))
H: barnyard grass, herbicidal effect (criteria 0-5) [19, 33]: 5 (Herbicidal rate of 90% or more (almost completely withered))
I: wild oat, herbicidal effect (criteria 0-5) [20, 33]: 0 (Herbicidal rate of 5% or less (almost no effect))
J: blackgrass, herbicidal effect (criteria 0-5) [21, 33]: 5 (Herbicidal rate of 90% or more (almost completely withered))
K: Italian ryegrass, herbicidal effect (criteria 0-5) [22, 33]: 5 (Herbicidal rate of 90% or more (almost completely withered))
L: windgrass, herbicidal effect (criteria 0-5) [23, 33]: 5 (Herbicidal rate of 90% or more (almost completely withered))
M: velvetleaf, herbicidal effect (criteria 0-5) [24, 33]: 5 (Herbicidal rate of 90% or more (almost completely withered))
N: redroot pigweed, herbicidal effect (criteria 0-5) [25, 33]: 5 (Herbicidal rate of 90% or more (almost completely withered))
O: lambsquarters, herbicidal effect (criteria 0-5) [26, 33]: 5 (Herbicidal rate of 90% or more (almost completely withered))
P: chickweed, herbicidal effect (criteria 0-5) [27, 33]: 5 (Herbicidal rate of 90% or more (almost completely withered))
R: persian speedwell, herbicidal effect (criteria 0-5) [28, 33]: 5 (Herbicidal rate of 90% or more (almost completely withered))

Cc1nn(C)c(=O)c(-c2c(-c3ccc(C#N)cc3)sc3c(F)cccc23)c1O [4-052]
herbicidal effect on barnyard grass (H) ([4]; 320 g/ha): 5 (Herbicidal rate of 90% or more (almost completely withered))
herbicidal effect on Chinese sprangletop (D) ([5]; 320 g/ha): 3 (Herbicidal rate of 40% or more and less than 70%)
herbicidal effect on rice flat sedge (E) ([6]; 320 g/ha): 4 (Herbicidal rate of 70% or more and less than 90%)
Herbicidal effect by soil treatment, F: southern crabgrass [7]: 0 (Herbicidal rate of 5% or less (almost no effect))
Herbicidal effect by soil treatment, G: green foxtail [8]: 0 (Herbicidal rate of 5% or less (almost no effect))
Herbicidal effect by soil treatment, H: barnyard grass [9]: 0 (Herbicidal rate of 5% or less (almost no effect))
Herbicidal effect by soil treatment, I: wild oat [10]: 0 (Herbicidal rate of 5% or less (almost no effect))
Herbicidal effect by soil treatment, J: blackgrass [29]: 0 (Herbicidal rate of 5% or less (almost no effect))
Herbicidal effect by soil treatment, K: Italian ryegrass [11]: 0 (Herbicidal rate of 5% or less (almost no effect))
Herbicidal effect by soil treatment, L: windgrass [12]: 0 (Herbicidal rate of 5% or less (almost no effect))
Herbicidal effect by soil treatment, M: velvetleaf [13]: 1 (Herbicidal rate of 5% or more and less than 20%)
Herbicidal effect by soil treatment, N: redroot pigweed [14]: 4 (Herbicidal rate of 70% or more and less than 90%)
Herbicidal effect by soil treatment, O: lambsquarters [15]: 2 (Herbicidal rate of 20% or more and less than 40%)
Herbicidal effect by soil treatment, P: chickweed [30]: 3 (Herbicidal rate of 40% or more and less than 70%)
Herbicidal effect by soil treatment, Q: false cleavers [16]: 0 (Herbicidal rate of 5% or less (almost no effect))
Herbicidal effect by soil treatment, R: persian speedwell [31]: 4 (Herbicidal rate of 70% or more and less than 90%)
herbicidal effect on F: southern crabgrass (evaluation grade 0-5) [17, 34]: 0 (Herbicidal rate of 5% or less (almost no effect))
herbicidal effect on G: green foxtail (evaluation grade 0-5) [18, 34]: 5 (Herbicidal rate of 90% or more (almost completely withered))
herbicidal effect on H: barnyard grass (evaluation grade 0-5) [19, 34]: 5 (Herbicidal rate of 90% or more (almost completely withered))
herbicidal effect on I: wild oat (evaluation grade 0-5) [20, 34]: 0 (Herbicidal rate of 5% or less (almost no effect))
herbicidal effect on J: blackgrass (evaluation grade 0-5) [21, 34]: 0 (Herbicidal rate of 5% or less (almost no effect))
herbicidal effect on K: Italian ryegrass (evaluation grade 0-5) [22, 34]: 3 (Herbicidal rate of 40% or more and less than 70%)
herbicidal effect on L: windgrass (evaluation grade 0-5) [23, 34]: 0 (Herbicidal rate of 5% or less (almost no effect))
herbicidal effect on M: velvetleaf (evaluation grade 0-5) [24, 34]: 5 (Herbicidal rate of 90% or more (almost completely withered))
herbicidal effect on N: redroot pigweed (evaluation grade 0-5) [25, 34]: 5 (Herbicidal rate of 90% or more (almost completely withered))
herbicidal effect on O: lambsquarters (evaluation grade 0-5) [26, 34]: 4 (Herbicidal rate of 70% or more and less than 90%)
herbicidal effect on P: chickweed (evaluation grade 0-5) [27, 34]: 5 (Herbicidal rate of 90% or more (almost completely withered))
herbicidal effect on R: persian speedwell (evaluation grade 0-5) [28, 34]: 5 (Herbicidal rate of 90% or more (almost completely withered))
